Assay results reported in paper PMC4430599, “Population pharmacokinetics of intravenous and oral panobinostat in patients with hematologic and solid tumors” (European Journal of Clinical Pharmacology, 2015).

What was measured:
[1] = design: method as in PMID 16899611; conditions: IV, highest dose administered 14 mg/m^2; refractory hematologic tumors; cited from earlier work
[2] = design: method as in PMID 25377157; conditions: patients with solid tumors with normal renal function; cited from earlier work
plasma protein = conditions: independent of the drug concentration in plasma; no reference given; cited from earlier work
CYP3A4 = tested on: CYP3A4; design: method as in PMID 21706316; conditions: coadministered CYP3A4 inhibitor; cited from earlier work
[3] = design: method as in ref 22 (a number printed in a supplementary file, which may have a reference list of its own: not looked up in the article's list); conditions: second final model; allometric exponent of weight on V2, assumed, no bootstrap; cited from earlier work
[4] = design: method as in ref 17 = [17]; 17. Woo MM, Culver K, Li W, Liu A, Scott J, Parker K, Jalaluddin M, Laird G, Cooper MR, Schran HF (2008) Panobinostat (LBH589) pharmacokinetics (PK): implications for clinical safety and efficacy. Ann; conditions: oral, 60 mg; cited from earlier work
[5] = Population pharmacokinetic analysis (NONMEM), first final model; format: in vivo, patients
Source text: (§1) A population PK data set was constructed from 581 patients with advanced hematologic and solid tumors who participated in 14 phase 1 and phase 2 studies of panobinostat (Table 1). Studies A2101 and A2102 used IV panobinostat, whereas all other studies examined oral formulations of panobinostat. The CSF was used in two of the oral panobinostat studies, B2101and B2102, whereas the remaining studies used the FMI formulation. The two phase 1 dose-escalation studies of IV panobinostat used doses of 1.2 to 20 mg/m^2 daily administered under various intermittent regimens. In three phase 1 dose-escalation studies, patients received oral panobinostat at doses ranging from 10 to 80 mg/day (administered weekly on days 1, 3, and 5; or every other week; or on days 1 and 4 every week). In five phase 2 studies, patients with cutaneous T cell lymphoma, chronic myeloid leukemia, and multiple myeloma received 20 mg panobinostat orally per day on days 1, 3, and 5 weekly. In three clinical pharmacology studies, patients received oral panobinostat at 20 mg under various regimens for study-specific purposes: in cycle 1 followed by 20 mg per day (days 1, 3, and 5 weekly) or 45 mg (days 1 and 4 weekly) in subsequent cycles. In a phase 2 study of Hodgkin lymphoma, patients received 40 mg panobinostat on days 1, 3, and 5 weekly.
(§2) PK sampling generally occurred from predose through 48 h after each oral dose or predose through 24 h after each IV dose. Panobinostat was precipitated from plasma samples, evaporated to dryness, reconstituted with 10 % aqueous acetonitrile (containing 0.2 % formic acid), and analyzed by liquid chromatography–tandem mass spectrometry assay. The assay was linear from 0.5 to 500 ng/mL [15], and the bias and coefficient of variation (CV) values of the quality-control sample results ranged from −0.7 to 0.7 % and 2.3 to 11.6 %, respectively. The lower limit of quantification of panobinostat was 0.5 ng/mL for all studies except B2201 and B2203, for which it was 0.1 ng/mL. Values below the lower limit of quantification (6 % of the total) were excluded.
The data sets for modeling were prepared using SAS version 9.2. The time of panobinostat dosing or collection of blood was computed based on the date and time when available. When the date or time was unknown, collection times were estimated based on time of examinations or schedule in the protocol. Demographic information, including age, body weight, height, sex, and race, was collected at screening and used in the analysis. […] BSA (m^2) was computed via the Gehan–George formula as 234.94×Weight^0.515×Height^0.422/10000 where weight is in kilograms and height is in centimeters. […] was computed via the Cockroft–Gault formula as 140−Age×Weight×0.85forfemales/72×Creatinine/88.4 where creatinine was in micromoles per liter.
The model was developed based on the methods described by Wahlby and colleagues. Scatterplots used to visualize the plasma concentration vs. time profile were generated using R version 2.8.1 and SAS version 9.2. PK model building was conducted using the first-order conditional estimation method with INTERACTION (FOCEI) option, using the default three significant digits for convergence, within the software program nonlinear mixed-effect modeling (NONMEM) extended version VI and version VII. Random interindividual variability parameters were estimated using exponential parameterization. The exponential error models ensured that parameter estimates were within reasonable physiological bounds; negative values were not possible. Model selection criteria were based on both objective function values (OFVs), as generated by NONMEM, and graphic diagnostic plots. For each model analyzed, NONMEM calculated the minimum value of the OFV—a statistic that, up to an additive constant, is minus twice the log likelihood of the data. […]

[6] = Population pharmacokinetic analysis (NONMEM), second final model; format: in vivo, patients
Source text: as §1, §2
The model was developed based on the methods described by Wahlby and colleagues. Scatterplots used to visualize the plasma concentration vs. time profile were generated using R version 2.8.1 and SAS version 9.2. PK model building was conducted using the first-order conditional estimation method with INTERACTION (FOCEI) option, using the default three significant digits for convergence, within the software program nonlinear mixed-effect modeling (NONMEM) extended version VI and version VII. Random interindividual variability parameters were estimated using exponential parameterization. The exponential error models ensured that parameter estimates were within reasonable physiological bounds; negative values were not possible. Model selection criteria were based on both objective function values (OFVs), as generated by NONMEM, and graphic diagnostic plots. For each model analyzed, NONMEM calculated the minimum value of the OFV—a statistic that, up to an additive constant, is minus twice the log likelihood of the data. When two models are nested and the additional parameters of the larger model are not needed, the difference in their minimum OFV is asymptotically χ^2 distributed, with the number of degrees of freedom equal to the number of parameters not common to the two models. The likelihood ratio test compared the two models on the basis of the difference in their OFV values.
PK data from both the IV and oral routes were fitted simultaneously in order to allow for estimation of the oral bioavailability. Several models were explored, including two-compartment and three-compartment models with first-order elimination. […]

[7] = design: method as in PMID 25939707; conditions: cited from earlier work
[8] = design: method as in PMID 22864948; conditions: cited from earlier work

Cc1[nH]c2ccccc2c1CCNCc1ccc(/C=C/C(=O)NO)cc1 [panobinostat]
maximum concentration (Cmax, mean ± SD) [1]: 565.6 ± 450.9 ng/mL
fraction excreted unchanged in the urine [2]: < 2.5%
plasma protein binding (plasma protein): 90%
panobinostat exposure with ketoconazole (CYP3A4): significant increases
V2.WT [3]: 1.000
mean Cmax [4]: 71 ng/mL
dose proportionality of PK ([5]; dose range of 10 to 80 mg across the 14 studies, CL and V2 related to dose): dose proportional
K23 ([5]; first final model): 1.810 h⁻¹
K24 ([5]; first final model): 1.424 h⁻¹
K32 ([5]; first final model): 0.507 h⁻¹
K42 ([5]; first final model): 0.040 h⁻¹
interindividual (inter-patient) variability in clearance ([5]; first final model): 74%
OM.CLV2 (Omega 2,1) ([5]; first final model, covariance CL-V2): 0.178
V2.BSA ([5]; first final model, exponent of (BSA/1.9) on V2): 1.359
V2.AGE ([5]; first final model, exponent of (age/61) on V2): 0.396
OM.V2 (Omega 2,2) ([5]; first final model, interindividual variance of V2): 0.334
V2.ASIAN ([5]; first final model, multiplicative factor on V2, Asian vs Caucasian): 1.373
V2.BLACK ([5]; first final model, multiplicative factor on V2, black vs Caucasian): 1.241
V2.OTHER ([5]; first final model, multiplicative factor on V2, other race vs Caucasian): 1.127
F1 (bioavailability) ([5]; first final model, oral, fraction): 0.214
CL (clearance) ([5]; first final model, patient with BSA 1.9 m^2): 33.085 L/h
V2 (volume of the central compartment) ([5]; first final model, reference BSA 1.9 m^2, age 61, Caucasian): 24.838 L
clearance ([5]; human, plasma, other: IV and oral routes fitted simultaneously, first final model, patient with BSA 1.9 m^2, read-out: CL (clearance) (converted)): 552 mL/min
half-life ([5]; human, plasma, other: IV and oral routes fitted simultaneously, calculated based on the final parameter estimates, read-out: terminal half-life (converted)): ~37 h
bioavailability ([5]; human, plasma, first final model, oral, read-out: absolute bioavailability): 21.4%
OM.CLV2 (Omega 2,1) ([6]; covariance CL-V2): 0.151
OM.Q3V3 (Omega 4,3) ([6]; covariance Q3-V3): 0.505
OM.Q4V4 (Omega 6,5) ([6]; covariance Q4-V4): 0.556
Q3.AGE ([6]; exponent of (age/61) on Q3): 0.410
Q4.AGE ([6]; exponent of (age/61) on Q4): 0.212
V2.AGE ([6]; exponent of (age/61) on V2): -0.005
V3.AGE ([6]; exponent of (age/61) on V3): 0.713
V4.AGE ([6]; exponent of (age/61) on V4): 0.530
bioavailability ([6]; human, plasma, oral, fraction, read-out: F1 (bioavailability)): 19.4%
clearance ([6]; human, plasma, other: intravenous and oral, fitted simultaneously, reference weight 70 kg, age 61, Caucasian): 481 mL/min
OM.Q3 (Omega 3,3) ([6]; interindividual variance of Q3): 0.666
OM.Q4 (Omega 5,5) ([6]; interindividual variance of Q4): 0.497
OM.V2 (Omega 2,2) ([6]; interindividual variance of V2): 1.668
OM.V3 (Omega 4,4) ([6]; interindividual variance of V3): 0.441
OM.V4 (Omega 6,6) ([6]; interindividual variance of V4): 0.700
V2.ASIAN ([6]; multiplicative factor on V2, Asian vs Caucasian): 2.060
V2.BLACK ([6]; multiplicative factor on V2, black vs Caucasian): 1.817
V2.OTHER ([6]; multiplicative factor on V2, other race vs Caucasian): 0.835
V3 (peripheral volume) ([6]; reference weight 70 kg, age 61): 71.874 L
V4 (peripheral volume) ([6]; reference weight 70 kg, age 61): 803.193 L
V2 ([6]; reference weight 70 kg, age 61, Caucasian): 30.862 L
panobinostat exposure with liver impairment [7]: significant increases
number of circulating metabolites [8]: approximately 40
